Source: patent US20220008500A1, “COMPOSITIONS AND METHODS FOR TREATING HEART FAILURE” (The George Washington University, priority 2017, published 2022)

What was measured:
collagen III = assay: Western blot of LV myocardium, collagen III; assay type: in vivo, Sprague-Dawley rats; conditions: CNO 1 mg/kg IP daily
Experimental: TAC+OXT and OXT NORM animals received intraperitoneal (IP) injections of CNO (1 mg/kg) daily, beginning at 5 weeks of age until the animal was sacrificed.
Samples of LV myocardium (n=5-6/group) were flash frozen in liquid nitrogen and stored at −80° C. For western blot analysis of protein expression, samples were thawed and homogenized using the Qproteome Mammalian Protein Prep Kit (Qiagen) in tubes containing metallic beads. Samples were then centrifuged at 14,000 g for 20 minutes and protein concentrations were determined by the Pierce BCA Protein Assay (Thermo Scientific). Laemmli buffer (Bio Rad) with 10% 2-mercaptoethanol (Sigma-Aldrich) was added to the samples and samples were heated to 98° C. Equal protein concentration was loaded into wells containing 4-20% Mini-PROTEAN® TGX™ Gels (Bio Rad). The samples were then run at 100V for 1-1.5 hours to separate proteins by electrophoresis.
After electrophoresis, the samples were transferred to PVDF membranes for 10 min at 25V using the Trans-Blot® Turbo™ Transfer System (Bio Rad). The membranes were blocked with 5% milk for 18 hours. […] Band intensities for collagen III and IL-10 were measured using ImageJ and normalized to the corresponding band intensity for GAPDH.

[1] = system: excised Langendorff perfused hearts; assay: Isoproterenol dose response in excised Langendorff perfused hearts (β-adrenergic stimulation); design: species or system Sprague-Dawley rats; conditions: hearts of TAC rats given CNO daily
Experimental: At nine weeks of age rats were anesthetized with an IP injection of 0.2 mL Telazol and subject to isoflurane inhalation. Following cessation of pain reflexes, hearts were rapidly excised (n=26) and Langendorff perfused via the aorta at constant pressure (65 mmHg) and temperature (37° C.) with a Krebs-Henseleit solution containing (in mM) 115 NaCl, 3.3 KCl, 2.0 CaCl2, 1.4 MgSO4, 25.0 NaHCO3, 1.0 KH2PO4, 5.0 glucose, and 1.0 lactate. Perfusate was oxygenated with 95% 02-5% CO2. After a stabilization period of 10 minutes, a size 5 balloon (Harvard Apparatus) was inserted into the LV to measure isovolumic LV developed pressure (LVDP). Diastolic pressure was set to 10 mmHg and LVDP was computed as the difference between systolic and diastolic pressures. HR, LVDP, and coronary flow rate (CFR) were measured for at least 15 minutes during sinus rhythm. An isoproterenol (16504, Sigma Aldrich) dose response protocol was then administered using concentrations of 0.01, 0.1, 1, 10, 100, 1000 nM, and HR, LVDP, and CFR were measured at each concentration once function stabilized. After each study, rate pressure product (RPP), an indirect measure of LV work, was calculated as the product of HR and LVDP. Contractility and relaxation were measured as the maximum and minimum values of the first derivative of the LVP waveform, respectively, to assess inotropy and lusitropy.
Measurements in each group were compared using analysis of variance with Tukey post-hoc comparisons (Minitab 17 Statistical Software) to identify significant differences between groups. Myocyte area measurements were analyzed using fully nested ANOVA to account for both number of cells and number of animals. The isoproterenol dose response data was analyzed using a general linear model (GLM) to evaluate the group effect and the isoproterenol dose effect. Tukey post-hoc tests identified pairwise changes between groups at each isoproterenol concentration. Differences were considered significant if p<0.05.

PVN OXT neurons = assay: Firing of PVN OXT neurons after CNO injection; assay type: in vivo; conditions: DREADDs expressed in PVN OXT neurons
Excerpt: Additionally, selective activation of DREADDs in PVN OXT neurons decreases both mean arterial pressure and HR in telemetry instrumented conscious unrestrained animals. […] In this system one viral vector expresses Cre recombinase under an OXT promotor. The second vector expresses the excitatory hM3Dq DREADDs22. This is a Cre-dependent vector that has silencing double-floxed inverse open reading frames, which insures expression is only in OXT neurons that selectively express Cre. In each animal, 30-50 nl containing both viral vectors was selectively microinjected into the PVN over a 20 minutes period at 1 week of age.

## C[N+]1([O-])CCN(C2=Nc3cc(Cl)ccc3Nc3ccccc32)CC1 [CNO, clozapine N-oxide]
Collagen III; TAC rats with DREADDs
  Collagen III expression (band intensity normalized to GAPDH): 1.95±0.7 times Control
Collagen III; rats without TAC (OXT NORM)
  Collagen III expression (band intensity normalized to GAPDH): 1.31±0.5 change from Control
[1]; compared with Control and TAC hearts
  HR response to increasing isoproterenol concentration: greatest increase in HR
[1]; isoproterenol 1000 nM
  CFR at the highest isoproterenol concentration: 15 ± 1.9 mL/min
  Contractility at the highest isoproterenol concentration: 3,936±589 mmHg/s
  RPP at the highest isoproterenol concentration: 38,017±4,303 mmHg*bpm
  Relaxation at the highest isoproterenol concentration: −3,258±495 mmHg/s
PVN OXT neurons
  Firing of PVN OXT neurons: increases the firing of PVN OXT neurons for at least one hour
